Reference: US7772241B2, “Variolin derivatives and their use as antitumor agents” (Pharma Mar S.A., priority 2001, dated 2010)
Read-outs that look alike come from different tables or passages of the source.

Experiments:
LoVo-Dox = test: Inhibition of cells growth by colorimetric (SRB) assay, LoVo-Dox; conditions: for GI50 / CC50: Homo sapiens, 48 h; for GI50: read-out: LOVO-DOX GI50, SRB assay, 48 hours exposure; for CC50: read-out: LOVO-DOX LC50, SRB assay, 48 hours exposure; for LOVO-DOX TGI: SRB assay, 48 hours exposure
In short: (§1)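 Read-out is sulforhodamine B protein stain (OD 490 nm) after cold TCA fixation, following 48 h continuous exposure to samples spanning 10 to 10^−8 μg/ml.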

LNCaP = test: Inhibition of cells growth by colorimetric (SRB) assay, LNCaP; conditions: for GI50 / CC50: Homo sapiens, LNCaP, 48 h; for GI50: read-out: LN-caP GI50, SRB assay, 48 hours exposure; for CC50: read-out: LN-caP LC50, SRB assay, 48 hours exposure; for LN-caP TGI: SRB assay, 48 hours exposure
In short: as §1

IGROV-ET = test: Inhibition of cells growth by colorimetric (SRB) assay, IGROV-ET; conditions: for GI50 / CC50: Homo sapiens, 48 h; for GI50: read-out: IGROV-ET GI50, SRB assay, 48 hours exposure; for CC50: read-out: IGROV-ET LC50, SRB assay, 48 hours exposure; for IGROV-ET TGI: SRB assay, 48 hours exposure
In short: as §1

SK-MEL-28 = test: Inhibition of cells growth by colorimetric (SRB) assay, SK-MEL-28; conditions: for GI50 / CC50: Homo sapiens, SK-MEL-28, 48 h; for GI50: read-out: MEL-28 GI50, SRB assay, 48 hours exposure; for CC50: read-out: MEL-28 LC50, SRB assay, 48 hours exposure; for MEL-28 TGI: SRB assay, 48 hours exposure
In short: as §1

LoVo = test: Inhibition of cells growth by colorimetric (SRB) assay, LoVo; conditions: for GI50 / CC50: Homo sapiens, LoVo, 48 h; for GI50: read-out: LOVO GI50, SRB assay, 48 hours exposure; for CC50: read-out: LOVO LC50, SRB assay, 48 hours exposure; for LOVO TGI: SRB assay, 48 hours exposure
In short: as §1

PANC-1 = test: Inhibition of cells growth by colorimetric (SRB) assay, PANC-1; conditions: for GI50 / CC50: Homo sapiens, PANC-1, 48 h; for GI50: read-out: PANC-1 GI50, SRB assay, 48 hours exposure; for CC50: read-out: PANC-1 LC50, SRB assay, 48 hours exposure; for PANC-1 TGI: SRB assay, 48 hours exposure
In short: as §1

HeLa = test: Inhibition of cells growth by colorimetric (SRB) assay, HeLa; conditions: for GI50: Homo sapiens, HeLa, 48 h, read-out: HELA GI50, SRB assay, 48 hours exposure; for HELA TGI: SRB assay, 48 hours exposure
Source text: (§2) The finality of these assays is to interrupt the growth of a “in vitro” tumor cell culture by means a continued exhibition of the cells to the sample to be testing.
(§3) This form of the assay employs 96 well cell culture microplates of 9 mm diameter (Faircloth, 1988; Mosmann, 1983). Most of the cell lines are obtained from American Type Culture Collection (ATCC) derived from different human cancer types.
(§4) Cells are maintained in RPMI 1640 10% FBS, supplemented with 0.1 g/l penicillin and 0.1 g/l streptomycin sulphate and then incubated at 37° C., 5% CO2 and 98% humidity. For the experiments, cells were harvested from subconfluent cultures using trypsin and resuspended in fresh medium before plating.
(§5) Cells are seeded in 96 well microtiter plates, at 5×10^3 cells per well in aliquots of 195 μl medium, and they are allowed to attach to the plate surface by growing in drug free medium for 18 hours. Afterward, samples are added in aliquots of 5 μl in a ranging from 10 to 10^−8 μg/ml, dissolved in DMSO/EtOH/PBS (0.5:0.5:99). After 48 hours exposure, the antitumor effect are measured by the SRB methodology: cells are fixed by adding 50 μl of cold 50% (wt/vol) trichloroacetic acid (TCA) and incubating for 60 minutes at 4° C. Plates are washed with deionized water and dried. One hundred μl of SRB solution (0.4% wt/vol in 1% acetic acid) is added to each microtiter well and incubated for 10 minutes at room temperature. Unbound SRB is removed by washing with 1% acetic acid. Plates are air dried and bound stain is solubilized with Tris buffer. Optical densities are read on a automated spectrophotometric plate reader at a single wavelength of 490 nm.
(§6) The values for mean +/−SD of data from triplicate wells are calculated. Some parameters for cellular responses can be calculated: GI=growth inhibition, TGI=total growth inhibition (cytostatic effect) and LC=cell killing (cytotoxic effect).

A-549 = test: Inhibition of cells growth by colorimetric (SRB) assay, A-549
In short: as §1

K-562 = test: Inhibition of cells growth by colorimetric (SRB) assay, K-562; conditions: for GI50 / CC50: Homo sapiens, K562, 48 h; for GI50: read-out: K-562 GI50, SRB assay, 48 hours exposure; for CC50: read-out: K-562 LC50, SRB assay, 48 hours exposure; for K-562 TGI: SRB assay, 48 hours exposure
In short: as §1

HeLa-APL = test: Inhibition of cells growth by colorimetric (SRB) assay, HeLa-APL; conditions: for GI50 / CC50: Homo sapiens, 48 h; for GI50: read-out: HELA-APL GI50, SRB assay, 48 hours exposure; for CC50: read-out: HELA-APL LC50, SRB assay, 48 hours exposure; for HELA-APL TGI: SRB assay, 48 hours exposure
Source text: as §2, §3, §4, §5, §6

SK-BR-3 = test: Inhibition of cells growth by colorimetric (SRB) assay, SK-BR-3; conditions: for GI50 / CC50: Homo sapiens, SK-BR-3, 48 h; for GI50: read-out: SK-BR-3 GI50, SRB assay, 48 hours exposure; for CC50: read-out: SK-BR-3 LC50, SRB assay, 48 hours exposure; for SK-BR-3 TGI: SRB assay, 48 hours exposure
In short: as §1

HT-29 = test: Inhibition of cells growth by colorimetric (SRB) assay, HT-29
In short: as §1

DU-145 = test: Inhibition of cells growth by colorimetric (SRB) assay, DU-145; conditions: for GI50 / CC50: Homo sapiens, DU-145, 48 h; for GI50: read-out: DU-145 GI50, SRB assay, 48 hours exposure; for CC50: read-out: DU-145 LC50, SRB assay, 48 hours exposure; for DU-145 TGI: SRB assay, 48 hours exposure
In short: as §1

IGROV-1 = test: Inhibition of cells growth by colorimetric (SRB) assay, IGROV-1; conditions: for GI50 / CC50: Homo sapiens, IGROV-1, 48 h; for GI50: read-out: IGROV GI50, SRB assay, 48 hours exposure; for CC50: read-out: IGROV LC50, SRB assay, 48 hours exposure; for IGROV TGI: SRB assay, 48 hours exposure
In short: as §1

[1] = Homo sapiens, A549, 48 h, read-out: A-549 GI50, SRB assay, 48 hours exposure
[2] = Homo sapiens, A549, 48 h, read-out: A-549 LC50, SRB assay, 48 hours exposure
[3] = Homo sapiens, HT-29, 48 h, read-out: HT-29 GI50, SRB assay, 48 hours exposure
[4] = Homo sapiens, HT-29, 48 h, read-out: HT-29 LC50, SRB assay, 48 hours exposure

CSc1nccc(-c2c3cc4ccccc4nc3n3c(N)nccc23)n1 [Compound 18a]
GI50 (LoVo-Dox): 3.1 µM | CC50 (LoVo-Dox): ≥ 27.9 µM | LOVO-DOX TGI (LoVo-Dox): 9.74E−06 | GI50 (LNCaP): 3.49 µM | CC50 (LNCaP): 15.3 µM | LN-caP TGI (LNCaP): 7.31E−06 | GI50 (IGROV-ET): 7.06 µM | CC50 (IGROV-ET): ≥ 27.9 µM | IGROV-ET TGI (IGROV-ET): 1.53E−05 | GI50 (SK-MEL-28): 4.97 µM | CC50 (SK-MEL-28): ≥ 27.9 µM | MEL-28 TGI (SK-MEL-28): 1.20E−05 | GI50 (LoVo): 5.11 µM | CC50 (LoVo): 17 µM | LOVO TGI (LoVo): 9.32E−06 | GI50 (PANC-1): 6.53 µM | CC50 (PANC-1): ≥ 27.9 µM | PANC-1 TGI (PANC-1): 1.46E−05 | GI50 (HeLa): 0.0449 µM | HELA TGI (HeLa): 3.68E−06 | GI50 (A-549; [1]): 7.31 µM | CC50 (A-549; [2]): ≥ 27.9 µM | A-549 TGI (A-549; SRB assay, 48 hours exposure): 1.66E−05 | GI50 (K-562): 4.72 µM | CC50 (K-562): ≥ 27.9 µM | K-562 TGI (K-562): 1.66E−05 | GI50 (HeLa-APL): 0.0569 µM | CC50 (HeLa-APL): 6.56 µM | HELA-APL TGI (HeLa-APL): 8.31E−07 | GI50 (SK-BR-3): 1.34 µM | CC50 (SK-BR-3): ≥ 27.9 µM | SK-BR-3 TGI (SK-BR-3): 4.94E−06 | GI50 (HT-29; [3]): 4.41 µM | CC50 (HT-29; [4]): ≥ 27.9 µM | HT-29 TGI (HT-29; SRB assay, 48 hours exposure): 1.67E−05 | GI50 (DU-145): 4.27 µM | CC50 (DU-145): 23.3 µM | DU-145 TGI (DU-145): 9.99E−06 | GI50 (IGROV-1): 5.47 µM | CC50 (IGROV-1): ≥ 27.9 µM | IGROV TGI (IGROV-1): 1.33E−05

CSc1nccc(-c2c3ccc(C)nc3n3c(N)nccc23)n1 [Compound 43]
GI50 (LoVo-Dox): 1.22 µM | CC50 (LoVo-Dox): ≥ 31 µM | LOVO-DOX TGI (LoVo-Dox): 5.24E−06 | GI50 (LNCaP): 1.36 µM | CC50 (LNCaP): 12.5 µM | LN-caP TGI (LNCaP): 3.94E−06 | GI50 (IGROV-ET): 3.69 µM | CC50 (IGROV-ET): ≥ 31 µM | IGROV-ET TGI (IGROV-ET): 1.87E−05 | GI50 (SK-MEL-28): 0.85 µM | CC50 (SK-MEL-28): 15.3 µM | MEL-28 TGI (SK-MEL-28): 3.72E−06 | GI50 (LoVo): 0.717 µM | CC50 (LoVo): ≥ 31 µM | LOVO TGI (LoVo): 2.37E−06 | GI50 (PANC-1): 5.71 µM | CC50 (PANC-1): ≥ 31 µM | PANC-1 TGI (PANC-1): 1.65E−05 | GI50 (HeLa): 0.0233 µM | HELA TGI (HeLa): 2.03E−07 | GI50 (A-549; [1]): 0.937 µM | CC50 (A-549; [2]): 31.1 µM | GI50 (A-549; Homo sapiens, A549, 48 h, read-out: GI50 A-549, SRB assay, 48 hours exposure): 2.17 µM | CC50 (A-549; read-out: A-549 LC50, SRB assay, 48 hours exposure): ≥ 17.3 µM | GI50 (K-562): 5.27 µM | CC50 (K-562): 21.2 µM | K-562 TGI (K-562): 1.06E−05 | GI50 (HeLa-APL): 0.0182 µM | CC50 (HeLa-APL): 7.88 µM | HELA-APL TGI (HeLa-APL): 1.75E−07 | GI50 (SK-BR-3): 1.24 µM | CC50 (SK-BR-3): ≥ 31 µM | SK-BR-3 TGI (SK-BR-3): 5.27E−06 | GI50 (HT-29; [3]): 0.932 µM | CC50 (HT-29; [4]): 31.1 µM | GI50 (HT-29; read-out: HT-29 GI50, SRB assay, 48 hours exposure): 1.13 µM | CC50 (HT-29; read-out: HT-29 LC50, SRB assay, 48 hours exposure): ≥ 31 µM | GI50 (DU-145): 1.68 µM | CC50 (DU-145): 24.5 µM | DU-145 TGI (DU-145): 6.79E−06 | GI50 (IGROV-1): 6.64 µM | CC50 (IGROV-1): ≥ 31 µM | IGROV TGI (IGROV-1): 1.60E−05

CSc1nccc(-c2c3c(Cl)ccnc3n3c(N)nccc23)n1.Cl [Compound 108]
GI50 (LoVo-Dox): 0.68 µM | CC50 (LoVo-Dox): 26.4 µM | LOVO-DOX TGI (LoVo-Dox): 1.61E−06 | GI50 (IGROV-ET): 11.3 µM | CC50 (IGROV-ET): 26.4 µM | IGROV-ET TGI (IGROV-ET): 2.64E−05 | GI50 (SK-MEL-28): 0.925 µM | CC50 (SK-MEL-28): 26.4 µM | MEL-28 TGI (SK-MEL-28): 2.64E−05 | GI50 (LoVo): 0.208 µM | CC50 (LoVo): 4.85 µM | LOVO TGI (LoVo): 7.57E−07 | GI50 (PANC-1): 3.37 µM | CC50 (PANC-1): 26.4 µM | PANC-1 TGI (PANC-1): 2.64E−05 | GI50 (HeLa): 0.00751 µM | HELA TGI (HeLa): 1.15E−07 | GI50 (A-549; [1]): 2.02 µM | CC50 (A-549; [2]): 26.4 µM | A-549 TGI (A-549; SRB assay, 48 hours exposure): 2.16E−05 | GI50 (HeLa-APL): 0.00954 µM | CC50 (HeLa-APL): 26.4 µM | HELA-APL TGI (HeLa-APL): 2.04E−07 | GI50 (SK-BR-3): 5.62 µM | CC50 (SK-BR-3): 26.4 µM | SK-BR-3 TGI (SK-BR-3): 1.60E−05 | GI50 (HT-29; [3]): 0.701 µM | CC50 (HT-29; [4]): 26.4 µM | HT-29 TGI (HT-29; SRB assay, 48 hours exposure): 2.64E−05 | GI50 (DU-145): 1.5 µM | CC50 (DU-145): 26.4 µM | DU-145 TGI (DU-145): 2.64E−05 | GI50 (IGROV-1): 2.33 µM | CC50 (IGROV-1): 26.4 µM | IGROV TGI (IGROV-1): 2.64E−05
